Patent US12133846B2, “Electrophilic androgen receptor (AR) antagonists for AR downregulation and ferroptosis induction in cancer cells” (priority 2019, dated 2024)

What was measured:
[1] = system: AR, AR-V7, c-Myc, HO-1, Hsp70; assay: Western blotting under BSO combination, VCaP cells; assay type: cell-based; settings: VCaP, 2-63 2.5 μM plus BSO 100 μM
Experimental: It was first investigated if iron chelators or antioxidants could rescue the viability of drug combination-treated cells. […] HO-1 catalyzes the decomposition of heme into carbon monoxide, biliverdin, and Fe^2+. […] Both Fer-1 and the lipophilic antioxidant α-Toc can effectively scavenge radicals in phosphatidylcholine lipid bilayers and break the redox cycle that generates lipid hydroperoxide.
(§1) Western Blotting. […] Proteins in cell lysates (40 μg) were separated using electrophoresis on SDS-PAGE and transferred onto PVDF (polyvinylidenedifluoride) membranes. Membranes were blocked in 5% fat-free milk followed by incubation with primary antibodies overnight at 4° C., and the secondary horseradish peroxidase-conjugated anti-rabbit or anti-mouse antibodies. The blots were developed in the Enhanced Chemiluminescence mixture and detected by ImageQuant™ LAS 4000 imaging system (GE). Density of protein bonds were calculated and analyzed by using imageJ software downloaded from the National Institute of Health website.

22Rv1 cells [2] = assay: MTT viability assay, 22Rv1 cells; assay type: cell-based; settings: 5 μM, 72 h
Source text: (§2) Biological Characterization. ITC-ARi hybrid drugs effectively reduce the viability of PCa cells. By using an MTT assay, it was first examined if the newly synthesized hybrid drugs affect the viability of CRPC-relevant PCa cells. PCa VCaP cells naturally express abundant wild type FL AR as well as AR splice variants (e.g., AR-V7). These cells were, therefore, used as one of the cell culture models in this work to investigate the drug-caused viability loss and AR downregulation.

[3] = system: acetylation of α-tubulin and histone H3 (markers for HDAC6 and nuclear HDAC inhibition); assay: Western blotting of acetylation markers in VCaP cells; assay type: cell-based; settings: 16 h, 2-63 and 12b 5 and 15 μM, SAHA 1 μM
Experimental: as §1

PARP cleavage = PARP cleavage under 2-63 plus BSO in PCa cells; assay type: cell-based; settings: 2-63 plus BSO combination, data not shown
Source text: 2-63 and BSO combination induces ferroptosis in PCa cells. […] Because both ITC and BSO change redox balance, and because the significant upregulation of HO-1 by 2-63 (FIG. 21) may increase free ferrous iron (Fe2+) inside cells, ferroptosis, a recently defined non-apoptotic cell death mechanism that occurs due to ROS and iron-caused oxidative lipid damage (Stockwell, et al., Cell 2017, 171, 273-285) was explored.

C4-2 cells = assay: MTT viability assay, C4-2 cells; assay type: cell-based; settings: 5 μM, 72 h
Source text: as §2

22Rv1 cells [4] = assay: BSO pretreatment plus drug, MTT viability, 22Rv1 cells
Experimental: Cell viability was then assessed using an MTT assay.
PCa cells (6×10^3 cells/well) were seeded into 96-well plates overnight and then treated with indicated compounds at indicated concentrations and time durations. The MTT (3-(4, 5-Dimethylthiazol-2-yl)-2,5-diphenyltetrazolium bromide) assay was performed according to the standard protocol. Briefly, MTT (0.5 mg/mL) was incubated with cells at 37° C. for 3 hours. Supernatant was removed, followed by the addition of dimethyl DMSO (100 μl). After incubation for 30 minutes at 37° C., absorbance was read at 570 nm on a microplate reader.

Sp1 and c-Myc = assay: Western blotting of transcription factors in VCaP cells; assay type: cell-based; settings: 5.0 and 10 μM, 24 h
Experimental: FL AR is a client protein of Hsp90, and AR-V7 might be chaperoned by Hsps other than Hsp90 (Moses, et al., Cancer Res. 2018, 78, 4022-4035). Because Hsp70 upregulation is an indicator of heat shock protein disruption (Kitson, et al., Nat. Chem. 2013, 5, 307-314) that causes client protein degradation, it was assessed whether 2-63 could change the protein stability of AR and AR-V7. […] 2-63-induced AR/AR-V7 downregulation was partially rescued by the proteasome inhibitor MG-132 (data not shown). This supports the involvement of proteasome degradation in AR reduction. Besides the posttranslational mechanisms, AR downregulation could also be caused by suppressing transcription factors (TFs) that drive the transcription of the AR gene. Sp1 and c-Myc were selected as representatives that could be affected by 2-63. Multiple Sp1 binding sites are located near the transcriptional initiation region of the AR gene.
Western Blotting. […] The protein concentration of supernatants was determined using the Pierce BCA Protein Assay Kit (Thermo Fisher, Cat #23225). […] The blots were developed in the Enhanced Chemiluminescence mixture and detected by ImageQuant™ LAS 4000 imaging system (GE). Density of protein bonds were calculated and analyzed by using imageJ software downloaded from the National Institute of Health website.

## CC(=O)N[C@H](CSC(=S)NCCCCCCc1ccc(N2C(=S)N(c3ccc(C#N)c(C(F)(F)F)c3)C(=O)C2(C)C)cn1)C(=O)O [2-63, N-acetyl-S-((6-(5-(3-(4-cyano-3-(trifluoromethyl)phenyl)-5,5-dimethyl-4-oxo-2-thioxoimidazolidin-1-yl)pyridine-2-yl)hexyl)carbamothioyl)-D-cysteine]
[1]
  AR/AR-V7, c-Myc and HO-1 expression versus individual drugs: more effectively downregulated AR/AR-V7 and c-Myc and upregulated the cellular stress marker HO-1
22Rv1 cells [2]
  relative potency in viability reduction, 22Rv1 cells: 12b>2-63>PEITC-NAC
[3]
  histone H3 acetylation: did not show significant effects
[3]; SFN 15 μM
  α-tubulin acetylation: did not show significant effects
PARP cleavage
  PARP cleavage: did not cause detectable PARP cleavage
C4-2 cells
  relative potency in viability reduction, C4-2 cells: 12b>2-63>PEITC-NAC
22Rv1 cells [4]; BSO 2.5-10 μM 16 h pretreatment, then 2-63 1-10 μM 24 h, synergism = index <0.8
  combinatorial effect with BSO (interaction index), 22Rv1: synergistically reduced viability
22Rv1 cells [4]; Homo sapiens, 22Rv1, 24 h, read-out: viability reduction, 22Rv1 cells
  cytotoxicity at 5 µM: 65%
Sp1 and c-Myc
  Sp1 and c-Myc protein level: dose-dependently reduced
